The text below walks through data of the Kinase Knowledgebase extract (Sharma et al. 2016).

A word on the IC50: it is the point on the concentration scale where inhibition reaches its midpoint.

This assay has as its target EGFR (UniProt P00533).

Chain of EGFR (P00533 whole entry, looked up): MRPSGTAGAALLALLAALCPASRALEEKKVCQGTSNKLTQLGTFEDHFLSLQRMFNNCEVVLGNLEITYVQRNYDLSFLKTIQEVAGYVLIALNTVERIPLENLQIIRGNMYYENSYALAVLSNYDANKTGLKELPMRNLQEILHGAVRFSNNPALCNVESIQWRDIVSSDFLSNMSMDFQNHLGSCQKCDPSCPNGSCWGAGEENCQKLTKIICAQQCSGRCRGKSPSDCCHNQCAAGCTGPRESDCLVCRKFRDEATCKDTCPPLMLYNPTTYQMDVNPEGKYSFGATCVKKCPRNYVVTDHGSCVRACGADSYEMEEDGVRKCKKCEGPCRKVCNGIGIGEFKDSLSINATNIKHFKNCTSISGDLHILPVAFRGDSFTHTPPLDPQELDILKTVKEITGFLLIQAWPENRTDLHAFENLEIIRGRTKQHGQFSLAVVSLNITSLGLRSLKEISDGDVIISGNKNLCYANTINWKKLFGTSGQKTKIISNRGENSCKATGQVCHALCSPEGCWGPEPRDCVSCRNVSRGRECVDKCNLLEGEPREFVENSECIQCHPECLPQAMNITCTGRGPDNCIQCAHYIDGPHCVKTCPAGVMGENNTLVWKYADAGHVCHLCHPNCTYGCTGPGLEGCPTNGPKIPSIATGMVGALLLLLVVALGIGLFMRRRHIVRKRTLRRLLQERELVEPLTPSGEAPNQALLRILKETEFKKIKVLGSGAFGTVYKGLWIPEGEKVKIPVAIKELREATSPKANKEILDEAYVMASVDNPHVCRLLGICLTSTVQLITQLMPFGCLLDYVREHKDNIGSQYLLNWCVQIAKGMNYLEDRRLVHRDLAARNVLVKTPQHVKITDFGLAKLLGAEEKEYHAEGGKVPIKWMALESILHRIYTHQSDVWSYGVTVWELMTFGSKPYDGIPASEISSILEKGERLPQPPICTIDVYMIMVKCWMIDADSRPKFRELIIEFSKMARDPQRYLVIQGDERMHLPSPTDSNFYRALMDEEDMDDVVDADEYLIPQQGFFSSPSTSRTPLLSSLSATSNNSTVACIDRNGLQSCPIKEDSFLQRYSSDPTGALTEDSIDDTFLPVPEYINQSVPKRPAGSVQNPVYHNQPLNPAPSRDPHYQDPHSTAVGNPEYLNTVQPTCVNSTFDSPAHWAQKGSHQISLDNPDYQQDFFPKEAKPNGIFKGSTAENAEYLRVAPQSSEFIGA

In the case of `CCc1c(NC(=O)OC[C@@H]2CCNC2)cn2ncnc(Nc3ccc4c(cnn4Cc4ccccc4)c3)c12`, the IC50 lay within 1 to 5000 nM.
Next, `CCc1c(NC(=O)OC[C@H]2COCCN2)cn2ncnc(Nc3ccc4c(cnn4Cc4ccccc4)c3)c12`: 1 to 5000 nM.
Next, `CCc1c(NC(=O)O[C@H]2CC[C@H](N)CC2)cn2ncnc(Nc3ccc4c(cnn4Cc4ccccc4)c3)c12`: 1 to 5000 nM.
`CCc1c(NC(=O)OC[C@@H]2COCCN2)cn2ncnc(Nc3ccc4c(cnn4Cc4cscn4)c3)c12` registered an IC50 of 1 to 5000 nM.
As for `Cc1c(NC(=O)O[C@@H]2CCN[C@@H](CO)C2)cn2ncnc(Nc3ccc4c(cnn4Cc4cccc(F)c4)c3)c12`, the IC50 is 1 to 5000 nM.
Regarding `CCc1c(NC(=O)OC[C@@H]2COCCN2)cn2ncnc(Nc3ccc4c(cnn4Cc4ccsc4)c3)c12`, the IC50 lay within 1 to 5000 nM.
On to `CCc1c(NC(=O)OC[C@H]2CNCCO2)cn2ncnc(Nc3ccc4c(cnn4Cc4ccccc4)c3)c12`, for which the IC50 was 1 to 5000 nM.
The result for `CCc1c(NC(=O)OC[C@@H]2CCCN2C)cn2ncnc(Nc3ccc4c(cnn4Cc4ccccc4)c3)c12` reads 1 to 5000 nM; that for `Cc1c(NC(=O)OC[C@H](C)N)cn2ncnc(Nc3ccc4c(cnn4Cc4cccc(F)c4)c3)c12`, 1 to 5000 nM.
Next, `CCc1c(NC(=O)OC[C@@H]2COCCN2)cn2ncnc(Nc3ccc4c(cnn4Cc4cccc(F)c4)c3)c12`: 1 to 5000 nM.
Next, `Cc1c(NC(=O)OCC2COCCN2)cn2ncnc(Nc3ccc4c(cnn4Cc4cccc(F)c4)c3)c12` (stereo not given): 1 to 5000 nM; `CCc1c(NC(=O)OC[C@H]2CCCN2)cn2ncnc(Nc3ccc4c(cnn4Cc4ccccc4)c3)c12`: 1 to 5000 nM; `CCc1c(NC(=O)OCCCN2CCC[C@H](O)C2)cn2ncnc(Nc3ccc4c(cnn4Cc4ccccc4)c3)c12`: 1 to 5000 nM.
Take `CCc1c(NC(=O)OC[C@@H]2COCCN2)cn2ncnc(Nc3ccc4c(cnn4Cc4ccccc4)c3)c12`: the IC50 is 1 to 5000 nM.
The result for `Cc1c(NC(=O)OC[C@@H]2COCCN2C(=O)OC(C)(C)C)cn2ncnc(Nc3ccc4c(cnn4Cc4cccc(F)c4)c3)c12` reads 1 to 5000 nM.
As to `CCc1c(NC(=O)OC[C@@H]2COCCN2)cn2ncnc(Nc3ccc4c(cnn4Cc4nccs4)c3)c12`, the IC50 lay within 1 to 5000 nM.
The result for `CCc1c(NC(=O)OC[C@@H]2COCCN2)cn2ncnc(Nc3ccc4c(cnn4Cc4cccnc4)c3)c12` reads 1 to 5000 nM; that for `CCc1c(NC(=O)OC[C@@H]2COCCN2)cn2ncnc(Nc3ccc4c(cnn4Cc4ccccn4)c3)c12`, 1 to 5000 nM; that for `CCc1c(NC(=O)OC[C@H]2C[C@H](O)CCN2)cn2ncnc(Nc3ccc4c(cnn4Cc4ccccc4)c3)c12`, 1 to 5000 nM.
Next, `CCc1c(NC(=O)OCCCN2CC[C@@H](O)C2)cn2ncnc(Nc3ccc4c(cnn4Cc4ccccc4)c3)c12`: 1 to 5000 nM; `CCc1c(NC(=O)OC[C@@H]2COCCN2)cn2ncnc(Nc3ccc4c(cnn4Cc4cccs4)c3)c12`: 1 to 5000 nM.
In the case of `CCc1c(NC(=O)O[C@@H]2CCCNC2)cn2ncnc(Nc3ccc4c(cnn4Cc4ccccc4)c3)c12`, the IC50 is 1 to 5000 nM.
Turning to `Cc1c(NC(=O)O[C@@H]2CCCNC2)cn2ncnc(Nc3ccc4c(cnn4Cc4cccc(F)c4)c3)c12`, the IC50 was in the range of 1 to 5000 nM.
Next, `CCc1c(NC(=O)O[C@H]2CC[C@@](C)(N)CC2)cn2ncnc(Nc3ccc4c(cnn4Cc4ccccc4)c3)c12`: 1 to 5000 nM; `CCc1c(NC(=O)OC[C@@H]2CNCCO2)cn2ncnc(Nc3ccc4c(cnn4Cc4ccccc4)c3)c12`: 1 to 5000 nM.
The result for `CCc1c(NC(=O)OC[C@@H]2COCCN2)cn2ncnc(Nc3ccc4c(cnn4Cc4cnccn4)c3)c12` reads 1 to 5000 nM; that for `Cc1c(NC(=O)OC[C@H]2COCCN2)cn2ncnc(Nc3ccc4c(cnn4Cc4cccc(F)c4)c3)c12`, 1 to 5000 nM.
The result for `CCc1c(NC(=O)OC[C@H]2CCNC2)cn2ncnc(Nc3ccc4c(cnn4Cc4ccccc4)c3)c12` reads 1 to 5000 nM.
Regarding `Cc1c(NC(=O)O[C@H]2CCCNC2)cn2ncnc(Nc3ccc4c(cnn4Cc4cccc(F)c4)c3)c12`, the IC50 was 1 to 5000 nM.
The result for `Cc1c(NC(=O)O[C@H]2CC[C@@](C)(N)CC2)cn2ncnc(Nc3ccc4c(cnn4Cc4cccc(F)c4)c3)c12` reads 1 to 5000 nM; that for `CCc1c(NC(=O)OCCCN2CC[C@H](O)C2)cn2ncnc(Nc3ccc4c(cnn4Cc4ccccc4)c3)c12`, 1 to 5000 nM; that for `CCc1c(NC(=O)O[C@H]2CC[C@@H](N)CC2)cn2ncnc(Nc3ccc4c(cnn4Cc4ccccc4)c3)c12`, 1 to 5000 nM.
The result for `Cc1c(NC(=O)OC[C@@H]2COCCN2)cn2ncnc(Nc3ccc4c(cnn4Cc4cccc(F)c4)c3)c12` reads 1 to 5000 nM.
`Cc1c(NC(=O)OC[C@@H](C)N)cn2ncnc(Nc3ccc4c(cnn4Cc4cccc(F)c4)c3)c12` yielded an IC50 of 1 to 5000 nM.
The result for `CCc1c(NC(=O)O[C@H]2CC[C@@H](CN)CC2)cn2ncnc(Nc3ccc4c(cnn4Cc4ccccc4)c3)c12` reads 1 to 5000 nM.
Compound `CCc1c(NC(=O)O[C@@H]2CCN[C@@H](CO)C2)cn2ncnc(Nc3ccc4c(cnn4Cc4ccccc4)c3)c12` displayed an IC50 of 1 to 5000 nM.
The result for `CCc1c(NC(=O)O[C@H]2CC[C@H](CN)CC2)cn2ncnc(Nc3ccc4c(cnn4Cc4ccccc4)c3)c12` reads 1 to 5000 nM; that for `CCc1c(NC(=O)OC[C@@H]2COCCN2)cn2ncnc(Nc3ccc4c(cnn4Cc4ncco4)c3)c12`, 1 to 5000 nM; that for `CCc1c(NC(=O)OC[C@@H]2CCN(C)C2)cn2ncnc(Nc3ccc4c(cnn4Cc4ccccc4)c3)c12`, 1 to 5000 nM.
Compound `CCc1c(NC(=O)O[C@H]2CCCNC2)cn2ncnc(Nc3ccc4c(cnn4Cc4ccccc4)c3)c12` had an IC50 of 1 to 5000 nM.
The result for `CCc1c(NC(=O)OC2CCN[C@H](CO)C2)cn2ncnc(Nc3ccc4c(cnn4Cc4ccccc4)c3)c12` (stereo not given in full) reads 1 to 5000 nM.
Next, `Cc1c(NC(=O)O[C@H]2CCN[C@H](CO)C2)cn2ncnc(Nc3ccc4c(cnn4Cc4cccc(F)c4)c3)c12`: 1 to 5000 nM.
The result for `Cc1c(NC(=O)O[C@H]2CC[C@@H](N)CC2)cn2ncnc(Nc3ccc4c(cnn4Cc4cccc(F)c4)c3)c12` reads 1 to 5000 nM; that for `CCc1c(NC(=O)OC[C@@H]2CCCN2)cn2ncnc(Nc3ccc4c(cnn4Cc4ccccc4)c3)c12`, 1 to 5000 nM; that for `Cc1c(NC(=O)O[C@H]2CC[C@H](N)CC2)cn2ncnc(Nc3ccc4c(cnn4Cc4cccc(F)c4)c3)c12`, 1 to 5000 nM.
